Assay results from US12084467B2, “Therapeutic compounds for HIV virus infection” (Gilead Sciences, Inc., priority 2021, dated 2024).

Key:
[1] = Oral bioavailability PK in dog; assay type: in vivo; conditions: Beagle dog, oral gavage, solution vehicle 5% ethanol, 20% propylene glycol, 75% water; based on observed exposure of Intermediate 5 in plasma
Protocol: Oral dose (suspension and solution vehicle) of the compound being tested was administered via gavage in rat (Sprague Dawley) and dog (Beagle). Serial blood samples were collected via jugular vein into pre-chilled K2EDTA with 2 mM dichlorvos (final concentration) for up to 168 h. Whole blood was processed into plasma by centrifuge (3000 rpm for 10 minutes at 5C) within 30 minutes of collection.
Plasma samples were analyzed by direct protein precipitation with acetonitrile and further dilution with water before injecting onto Sciex API 5500 LC/MS/MS system for analysis.
AUC was calculated as Area under the plasma concentration vs. time curve from 0 h to infinity.
The solution vehicles used were 1) 5% ethanol, 20% propylene glycol, and 75% water and 2) 30% 10 mM HCl, 5% ethanol, 45% polyethylene glycol 300, and 20% propylene glycol.

[2] = Kinetic solubility analysis (CLND: total chemiluminescent nitrogen determination); conditions: 1.0% DMSO, 24-hour incubation at ambient temperature, maximum theoretical concentration 100 μM

CC(C)(C#Cc1ccc(-c2ccc(Cl)c3c(NS(C)(=O)=O)nn(CC(F)(F)F)c23)c([C@H](Cc2cc(F)cc(F)c2)NC(=O)Cn2nc(C(F)(F)F)c3c2C(F)(F)[C@@H]2C[C@H]32)n1)S(C)(=O)=O [Intermediate 5, N—((S)-1-(3-(4-chloro-3-(methylsulfonamido)-1-(2,2,2-trifluoroethyl)-1H-indazol-7-yl)-6-(3-methyl-3-(methylsulfonyl)but-1-yn-1-yl)pyridin-2-yl)-2-(3,5-difluorophenyl)ethyl)-2-((3bS,4aR)-5,5-difluoro-3-(trifluoromethyl)-3b,4,4a,5-tetrahydro-1H-cyclopropa[3,4]cyclopenta[1,2-c]pyrazol-1-yl)acetamide, reference compound]
Dog F % (solution) [1]: 16%
pH 2 solubility ([2]; 0.1N HCl): 0.11 μM
pH 7 solubility ([2]; 1×PBS buffer (pH 7.4)): 0.32 μM
